In ChEMBL document CHEMBL5291721, “A preclinical secondary pharmacology resource illuminates target-adverse drug reaction associations of marketed drugs” (Nat Commun, 2023):

Assays:
Histamine H3 receptor [1] = target: T1, Histamine H3 receptor (Homo sapiens, UniProt Q9Y5N1)
Thromboxane A2 receptor [2] = target: T2, Thromboxane A2 receptor (Homo sapiens, UniProt P21731)
T2 sequence (P21731 whole entry): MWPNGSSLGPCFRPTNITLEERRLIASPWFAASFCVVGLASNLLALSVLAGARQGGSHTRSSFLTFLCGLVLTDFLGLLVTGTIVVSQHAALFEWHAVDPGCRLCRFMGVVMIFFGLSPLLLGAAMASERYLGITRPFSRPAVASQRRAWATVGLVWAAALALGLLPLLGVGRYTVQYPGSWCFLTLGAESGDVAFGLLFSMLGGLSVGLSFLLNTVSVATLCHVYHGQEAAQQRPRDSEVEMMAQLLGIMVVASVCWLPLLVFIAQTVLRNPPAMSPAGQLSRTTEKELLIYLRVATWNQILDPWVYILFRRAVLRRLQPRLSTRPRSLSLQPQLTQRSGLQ

[3] = target: T3, 5-hydroxytryptamine receptor 2A (Homo sapiens, UniProt P28223); assay type: functional, cell-based
[4] = target: Gamma-aminobutyric acid receptor subunit alpha-1 (Rattus norvegicus, UniProt P62813)
Vasopressin V2 receptor = Vasopressin V2 receptor (Homo sapiens, UniProt P30518)
[5] = target: T4, Muscarinic acetylcholine receptor M1 (Homo sapiens, UniProt P11229); assay type: functional
T4 sequence (P11229 whole entry): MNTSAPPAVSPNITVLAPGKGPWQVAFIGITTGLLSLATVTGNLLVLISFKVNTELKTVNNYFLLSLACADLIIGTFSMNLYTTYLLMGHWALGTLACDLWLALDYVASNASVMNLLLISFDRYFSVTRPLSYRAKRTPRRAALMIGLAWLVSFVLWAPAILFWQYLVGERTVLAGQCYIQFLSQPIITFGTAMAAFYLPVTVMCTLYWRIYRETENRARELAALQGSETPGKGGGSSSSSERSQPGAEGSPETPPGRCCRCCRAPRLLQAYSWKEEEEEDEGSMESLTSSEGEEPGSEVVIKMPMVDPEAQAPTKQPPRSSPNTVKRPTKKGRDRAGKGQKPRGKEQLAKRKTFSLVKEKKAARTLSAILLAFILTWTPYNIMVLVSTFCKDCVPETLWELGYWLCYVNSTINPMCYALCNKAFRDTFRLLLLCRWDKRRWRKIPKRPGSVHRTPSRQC

[6] = target: Voltage-dependent L-type calcium channel subunit alpha-1C (Rattus norvegicus, UniProt P22002); assay type: functional
[7] = target: T3, 5-hydroxytryptamine receptor 2A; assay type: functional, cell-based; remark: listed apart in the source
[8] = target: 5-hydroxytryptamine receptor 2B (Homo sapiens, UniProt P41595); assay type: functional, cell-based
[9] = target: T5, Alpha-1A adrenergic receptor (Homo sapiens, UniProt P35348); assay type: functional, cell-based
T5 sequence (P35348 whole entry): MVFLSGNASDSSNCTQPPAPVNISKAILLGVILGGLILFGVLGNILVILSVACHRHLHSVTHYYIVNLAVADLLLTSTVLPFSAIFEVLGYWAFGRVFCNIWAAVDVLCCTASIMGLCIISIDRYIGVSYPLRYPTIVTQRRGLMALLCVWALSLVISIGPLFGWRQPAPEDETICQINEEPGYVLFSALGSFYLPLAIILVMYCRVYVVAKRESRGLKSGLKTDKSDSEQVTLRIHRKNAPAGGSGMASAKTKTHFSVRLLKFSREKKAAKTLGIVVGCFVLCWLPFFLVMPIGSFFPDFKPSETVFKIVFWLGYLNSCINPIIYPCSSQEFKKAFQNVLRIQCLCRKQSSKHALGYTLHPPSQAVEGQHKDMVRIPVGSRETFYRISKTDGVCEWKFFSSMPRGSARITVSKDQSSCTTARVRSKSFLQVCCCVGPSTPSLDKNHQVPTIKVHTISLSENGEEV

D(1A) dopamine receptor = D(1A) dopamine receptor (Homo sapiens, UniProt P21728)
Thromboxane A2 receptor [10] = target: T2, Thromboxane A2 receptor; assay type: functional, cell-based
Prothrombin = Prothrombin (Homo sapiens, UniProt P00734); assay type: functional
[11] = target: T6, Alpha-2A adrenergic receptor (Homo sapiens, UniProt P08913)
T6 sequence (P08913 whole entry): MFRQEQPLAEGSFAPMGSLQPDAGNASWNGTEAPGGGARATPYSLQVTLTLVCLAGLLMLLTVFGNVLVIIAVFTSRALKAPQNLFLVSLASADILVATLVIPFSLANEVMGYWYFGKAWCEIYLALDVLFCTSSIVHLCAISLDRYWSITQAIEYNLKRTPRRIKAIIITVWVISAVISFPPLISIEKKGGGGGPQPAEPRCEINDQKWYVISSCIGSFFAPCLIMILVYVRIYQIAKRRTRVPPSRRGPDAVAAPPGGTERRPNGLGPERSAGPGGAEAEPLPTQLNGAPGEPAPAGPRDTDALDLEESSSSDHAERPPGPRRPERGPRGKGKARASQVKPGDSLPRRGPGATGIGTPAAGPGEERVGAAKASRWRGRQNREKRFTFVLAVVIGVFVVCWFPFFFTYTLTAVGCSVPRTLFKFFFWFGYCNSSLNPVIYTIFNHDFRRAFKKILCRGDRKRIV

Histamine H3 receptor [12] = target: T1, Histamine H3 receptor; remark: listed apart in the source
Thromboxane A2 receptor [13] = target: T2, Thromboxane A2 receptor; assay type: functional, cell-based; remark: listed apart in the source
[14] = target: T5, Alpha-1A adrenergic receptor; assay type: functional, cell-based; remark: listed apart in the source
[15] = target: T5, Alpha-1A adrenergic receptor; assay type: functional, cell-based; remark: listed apart in the source
[16] = target: Sodium-dependent serotonin transporter (Homo sapiens, UniProt P31645)
[17] = target: 3',5'-cyclic-AMP phosphodiesterase 4A (Homo sapiens, UniProt P27815); assay type: functional
Mu-type opioid receptor = Mu-type opioid receptor (Homo sapiens, UniProt P35372)
Also: assay procedure not described here.

Chain of Mu-type opioid receptor (P35372 whole entry): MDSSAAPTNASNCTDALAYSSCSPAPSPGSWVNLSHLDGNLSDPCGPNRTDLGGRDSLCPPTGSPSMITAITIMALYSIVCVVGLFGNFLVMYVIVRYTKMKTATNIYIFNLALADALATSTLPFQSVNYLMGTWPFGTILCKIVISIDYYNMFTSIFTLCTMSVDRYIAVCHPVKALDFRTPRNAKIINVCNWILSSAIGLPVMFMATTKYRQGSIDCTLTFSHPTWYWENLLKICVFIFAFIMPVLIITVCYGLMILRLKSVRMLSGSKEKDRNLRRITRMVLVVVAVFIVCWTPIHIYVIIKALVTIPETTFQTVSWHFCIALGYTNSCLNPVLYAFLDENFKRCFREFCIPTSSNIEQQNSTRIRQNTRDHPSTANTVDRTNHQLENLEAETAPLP
Chain of 3',5'-cyclic-AMP phosphodiesterase 4A (P27815 whole entry): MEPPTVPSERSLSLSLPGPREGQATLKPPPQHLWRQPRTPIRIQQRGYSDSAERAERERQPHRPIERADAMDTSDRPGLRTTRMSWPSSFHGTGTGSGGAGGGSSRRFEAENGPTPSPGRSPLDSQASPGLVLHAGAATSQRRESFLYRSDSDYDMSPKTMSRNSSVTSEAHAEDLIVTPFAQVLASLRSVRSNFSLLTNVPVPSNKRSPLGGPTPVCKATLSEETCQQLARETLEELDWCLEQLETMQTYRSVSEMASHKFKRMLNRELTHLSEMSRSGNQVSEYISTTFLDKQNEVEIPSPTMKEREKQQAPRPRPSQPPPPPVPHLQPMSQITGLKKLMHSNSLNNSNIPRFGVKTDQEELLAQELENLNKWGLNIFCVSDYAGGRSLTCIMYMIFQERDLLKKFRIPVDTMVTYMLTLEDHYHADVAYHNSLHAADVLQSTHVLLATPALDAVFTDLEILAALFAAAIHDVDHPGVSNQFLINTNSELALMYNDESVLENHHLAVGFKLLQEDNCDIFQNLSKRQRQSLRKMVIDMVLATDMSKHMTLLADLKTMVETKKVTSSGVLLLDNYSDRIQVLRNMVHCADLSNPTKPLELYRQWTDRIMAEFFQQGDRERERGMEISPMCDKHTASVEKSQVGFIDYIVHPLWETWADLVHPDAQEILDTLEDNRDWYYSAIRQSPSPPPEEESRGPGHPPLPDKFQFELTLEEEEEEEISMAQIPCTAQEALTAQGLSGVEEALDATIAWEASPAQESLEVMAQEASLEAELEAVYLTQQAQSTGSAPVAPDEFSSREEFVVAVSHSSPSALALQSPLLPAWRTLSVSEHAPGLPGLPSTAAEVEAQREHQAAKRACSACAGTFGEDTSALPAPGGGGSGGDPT
Chain of D(1A) dopamine receptor (P21728 whole entry): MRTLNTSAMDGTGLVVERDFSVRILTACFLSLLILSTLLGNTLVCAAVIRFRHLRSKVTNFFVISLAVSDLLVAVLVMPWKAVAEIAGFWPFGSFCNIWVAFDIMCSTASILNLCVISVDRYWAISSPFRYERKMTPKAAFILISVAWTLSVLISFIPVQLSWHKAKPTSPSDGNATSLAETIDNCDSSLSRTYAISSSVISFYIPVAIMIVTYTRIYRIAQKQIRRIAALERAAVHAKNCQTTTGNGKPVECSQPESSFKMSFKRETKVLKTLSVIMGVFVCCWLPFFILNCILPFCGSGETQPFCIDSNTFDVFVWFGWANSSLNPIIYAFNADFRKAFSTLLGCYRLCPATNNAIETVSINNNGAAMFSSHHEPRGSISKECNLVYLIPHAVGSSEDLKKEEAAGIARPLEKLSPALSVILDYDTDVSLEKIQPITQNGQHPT
T1 sequence (Q9Y5N1 whole entry): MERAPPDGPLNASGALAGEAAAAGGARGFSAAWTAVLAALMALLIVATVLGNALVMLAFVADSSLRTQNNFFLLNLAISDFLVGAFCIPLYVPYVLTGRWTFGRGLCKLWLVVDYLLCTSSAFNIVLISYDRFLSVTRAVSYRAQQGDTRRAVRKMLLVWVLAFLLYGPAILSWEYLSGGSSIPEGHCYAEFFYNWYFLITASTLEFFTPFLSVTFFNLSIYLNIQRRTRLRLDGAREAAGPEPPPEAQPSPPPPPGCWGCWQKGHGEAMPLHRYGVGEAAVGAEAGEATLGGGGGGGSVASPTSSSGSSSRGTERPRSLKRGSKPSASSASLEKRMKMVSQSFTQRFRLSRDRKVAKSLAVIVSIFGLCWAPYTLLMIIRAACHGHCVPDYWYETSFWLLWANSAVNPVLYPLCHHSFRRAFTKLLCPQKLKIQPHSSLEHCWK
Chain of Sodium-dependent serotonin transporter (P31645 whole entry): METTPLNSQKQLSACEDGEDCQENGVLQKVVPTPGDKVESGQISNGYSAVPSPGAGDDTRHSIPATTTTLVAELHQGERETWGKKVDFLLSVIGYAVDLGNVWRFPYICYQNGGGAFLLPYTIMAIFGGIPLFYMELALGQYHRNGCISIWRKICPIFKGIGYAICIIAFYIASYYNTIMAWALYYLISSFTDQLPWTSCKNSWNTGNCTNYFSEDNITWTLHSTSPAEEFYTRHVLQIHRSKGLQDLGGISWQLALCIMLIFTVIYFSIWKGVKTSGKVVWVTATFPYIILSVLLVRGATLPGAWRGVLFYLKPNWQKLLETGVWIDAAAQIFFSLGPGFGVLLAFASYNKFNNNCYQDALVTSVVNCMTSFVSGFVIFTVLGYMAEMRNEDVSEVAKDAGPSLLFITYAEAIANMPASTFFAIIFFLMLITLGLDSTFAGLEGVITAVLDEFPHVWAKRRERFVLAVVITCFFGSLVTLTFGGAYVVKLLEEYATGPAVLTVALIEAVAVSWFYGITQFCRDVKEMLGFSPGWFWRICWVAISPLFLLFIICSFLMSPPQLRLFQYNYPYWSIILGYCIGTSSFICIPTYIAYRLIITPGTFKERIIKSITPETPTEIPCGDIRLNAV
T3 sequence (P28223 whole entry): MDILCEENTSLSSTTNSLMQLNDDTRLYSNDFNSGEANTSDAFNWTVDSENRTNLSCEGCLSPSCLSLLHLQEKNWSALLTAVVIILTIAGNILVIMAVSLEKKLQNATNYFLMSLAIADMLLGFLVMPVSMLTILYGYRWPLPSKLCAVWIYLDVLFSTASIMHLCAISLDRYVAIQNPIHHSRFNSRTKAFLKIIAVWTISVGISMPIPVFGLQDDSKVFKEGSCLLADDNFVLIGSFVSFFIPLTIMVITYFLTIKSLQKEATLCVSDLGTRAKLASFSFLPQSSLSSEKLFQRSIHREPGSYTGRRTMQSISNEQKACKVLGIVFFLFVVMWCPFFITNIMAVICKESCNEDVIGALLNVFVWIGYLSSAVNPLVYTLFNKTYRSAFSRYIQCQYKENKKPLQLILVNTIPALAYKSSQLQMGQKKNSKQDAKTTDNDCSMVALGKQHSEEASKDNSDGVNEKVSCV
Chain of Gamma-aminobutyric acid receptor subunit alpha-1 (P62813 whole entry): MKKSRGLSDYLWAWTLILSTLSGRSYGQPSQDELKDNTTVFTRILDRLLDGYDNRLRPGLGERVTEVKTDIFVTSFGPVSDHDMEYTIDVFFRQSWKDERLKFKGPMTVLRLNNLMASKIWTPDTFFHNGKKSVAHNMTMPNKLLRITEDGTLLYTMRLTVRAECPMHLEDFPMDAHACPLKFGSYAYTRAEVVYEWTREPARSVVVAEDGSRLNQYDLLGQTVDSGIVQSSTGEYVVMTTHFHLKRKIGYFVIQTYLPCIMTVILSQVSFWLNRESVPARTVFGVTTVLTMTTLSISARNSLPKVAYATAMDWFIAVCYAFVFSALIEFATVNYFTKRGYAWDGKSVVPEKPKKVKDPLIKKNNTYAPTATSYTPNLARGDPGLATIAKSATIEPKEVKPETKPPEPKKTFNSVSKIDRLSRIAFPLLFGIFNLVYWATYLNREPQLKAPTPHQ
Chain of Vasopressin V2 receptor (P30518 whole entry): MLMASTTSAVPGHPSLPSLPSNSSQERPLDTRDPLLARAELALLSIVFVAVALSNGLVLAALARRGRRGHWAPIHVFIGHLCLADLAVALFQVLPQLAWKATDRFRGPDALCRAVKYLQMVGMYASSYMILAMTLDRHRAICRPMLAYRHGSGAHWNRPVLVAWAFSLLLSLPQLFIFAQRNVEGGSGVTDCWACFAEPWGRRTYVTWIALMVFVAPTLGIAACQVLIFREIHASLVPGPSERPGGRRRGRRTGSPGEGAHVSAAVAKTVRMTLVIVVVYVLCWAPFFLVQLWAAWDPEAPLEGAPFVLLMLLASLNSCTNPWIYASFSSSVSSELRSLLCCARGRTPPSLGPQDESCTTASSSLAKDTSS
Chain of 5-hydroxytryptamine receptor 2B (P41595 whole entry): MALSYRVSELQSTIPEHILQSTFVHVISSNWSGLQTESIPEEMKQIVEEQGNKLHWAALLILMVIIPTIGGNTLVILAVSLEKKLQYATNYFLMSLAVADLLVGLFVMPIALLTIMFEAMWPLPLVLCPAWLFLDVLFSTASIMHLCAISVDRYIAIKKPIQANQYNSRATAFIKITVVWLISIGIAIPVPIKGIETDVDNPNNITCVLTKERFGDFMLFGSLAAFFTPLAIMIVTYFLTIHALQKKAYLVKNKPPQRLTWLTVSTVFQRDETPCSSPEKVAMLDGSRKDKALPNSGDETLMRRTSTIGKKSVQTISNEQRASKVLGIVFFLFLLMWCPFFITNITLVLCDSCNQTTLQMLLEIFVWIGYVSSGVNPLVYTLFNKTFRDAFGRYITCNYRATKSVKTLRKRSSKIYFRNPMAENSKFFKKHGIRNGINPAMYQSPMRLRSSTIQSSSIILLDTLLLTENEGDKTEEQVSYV

CN1C(C(=O)Nc2ccccn2)=C(O)c2sc(Cl)cc2S1(=O)=O [LORNOXICAM]
AC50 (Histamine H3 receptor [1]): > 10 µM
AC50 (Thromboxane A2 receptor [2]): > 30 µM
AC50 [3]: > 30 µM
AC50 [4]: > 10 µM
AC50 (Vasopressin V2 receptor): > 30 µM
AC50 [5]: > 10 µM
AC50 [6]: > 10 µM
AC50 [7]: > 30 µM
AC50 [8]: > 10 µM
AC50 [9]: > 30 µM

CC[N+]1(C)[C@@H]2CC(OC(=O)[C@H](CO)c3ccccc3)C[C@H]1[C@@H]1O[C@@H]12 (stereo partly specified) [OXITROPIUM]
AC50 (D(1A) dopamine receptor): > 30 µM
AC50 (Thromboxane A2 receptor [10]): > 30 µM
AC50 (Prothrombin): > 30 µM
AC50 [11]: > 30 µM
AC50 (Histamine H3 receptor [12]): > 30 µM
AC50 (Thromboxane A2 receptor [13]): > 30 µM
AC50 [14]: > 30 µM
AC50 [15]: > 30 µM
AC50 [16]: > 30 µM
AC50 [17]: > 30 µM
AC50 (Mu-type opioid receptor): > 30 µM

O=C(CCNNC(=O)c1ccncc1)NCc1ccccc1 [NIALAMIDE]
AC50 (D(1A) dopamine receptor): > 30 µM
AC50 (Thromboxane A2 receptor [10]): > 30 µM
AC50 (Prothrombin): > 30 µM
AC50 [11]: > 30 µM
AC50 (Histamine H3 receptor [12]): > 30 µM
AC50 (Thromboxane A2 receptor [13]): > 30 µM
AC50 [14]: > 30 µM
AC50 [15]: > 30 µM
AC50 [16]: > 30 µM
AC50 [17]: > 30 µM
AC50 (Mu-type opioid receptor): > 30 µM

CCC(=O)NCC[C@@H]1CCc2ccc3c(c21)CCO3 [RAMELTEON]
AC50 (D(1A) dopamine receptor): > 30 µM
AC50 (Thromboxane A2 receptor [10]): > 30 µM
AC50 (Prothrombin): > 30 µM
AC50 [11]: > 30 µM
AC50 (Histamine H3 receptor [12]): > 30 µM
AC50 (Thromboxane A2 receptor [13]): > 30 µM
AC50 [14]: > 30 µM
AC50 [15]: > 30 µM
AC50 [16]: > 30 µM
AC50 [17]: > 30 µM
AC50 (Mu-type opioid receptor): > 30 µM

OCCN1C[C@H](O)[C@@H](O)[C@H](O)[C@H]1CO [MIGLITOL]
AC50 (D(1A) dopamine receptor): > 30 µM
AC50 (Thromboxane A2 receptor [10]): > 30 µM
AC50 (Prothrombin): > 30 µM
AC50 [11]: > 30 µM
AC50 (Histamine H3 receptor [12]): > 30 µM
AC50 (Thromboxane A2 receptor [13]): > 30 µM
AC50 [14]: > 30 µM
AC50 [15]: > 30 µM
AC50 [16]: > 30 µM
AC50 [17]: > 30 µM
AC50 (Mu-type opioid receptor): > 30 µM

CCc1oc2ccccc2c1C(=O)c1cc(I)c(O)c(I)c1 [BENZIODARONE]
AC50 (D(1A) dopamine receptor): 10 µM
AC50 (Thromboxane A2 receptor [10]): > 1 µM
AC50 (Prothrombin): > 30 µM
AC50 [11]: 29.9 µM
AC50 (Histamine H3 receptor [12]): 28.3 µM
AC50 (Thromboxane A2 receptor [13]): 29 µM
AC50 [16]: > 30 µM
AC50 [17]: 2.37 µM
AC50 (Mu-type opioid receptor): 9.64 µM

Oc1c(Cl)cc(Cl)c2cccnc12 [CHLOROXINE]
AC50 (D(1A) dopamine receptor): > 30 µM
AC50 (Thromboxane A2 receptor [10]): > 30 µM
AC50 (Prothrombin): > 30 µM
AC50 [11]: > 30 µM
AC50 (Histamine H3 receptor [12]): > 30 µM
AC50 (Thromboxane A2 receptor [13]): > 30 µM
AC50 [14]: > 30 µM
AC50 [15]: > 30 µM
AC50 [16]: > 30 µM
AC50 [17]: > 30 µM
AC50 (Mu-type opioid receptor): > 30 µM

CN(C)[C@@H](c1cccc(O)c1)[C@H]1CCCC[C@H]1O [CIRAMADOL]
AC50 (D(1A) dopamine receptor): > 30 µM
AC50 (Thromboxane A2 receptor [10]): > 30 µM
AC50 (Prothrombin): > 30 µM
AC50 [11]: > 30 µM
AC50 (Histamine H3 receptor [12]): > 30 µM
AC50 (Thromboxane A2 receptor [13]): > 30 µM
AC50 [14]: > 30 µM
AC50 [15]: > 30 µM
AC50 [16]: 27.5 µM
AC50 [17]: > 30 µM
AC50 (Mu-type opioid receptor): 0.0059 µM

CC(=O)N[C@@H]1[C@@H](O)[C@H](O)[C@@H](CO)O[C@H]1O [N-ACETYLGLUCOSAMINE]
AC50 (D(1A) dopamine receptor): > 30 µM
AC50 (Thromboxane A2 receptor [10]): > 30 µM
AC50 (Prothrombin): > 30 µM
AC50 [11]: > 30 µM
AC50 (Histamine H3 receptor [12]): > 30 µM
AC50 (Thromboxane A2 receptor [13]): > 30 µM
AC50 [14]: > 30 µM
AC50 [15]: > 30 µM
AC50 [16]: > 30 µM
AC50 [17]: > 30 µM
AC50 (Mu-type opioid receptor): > 30 µM
